Assay results from US7964607B2, “Pyrazolo[3,4-d]pyrimidine compounds” (Pfizer Inc., priority 2007, dated 2011).

The compounds below were run against T1, human recombinant PDE9 enzyme (Homo sapiens, UniProt O76083) (assay: Phosphodiesterase 9 (PDE9) inhibitory activity, Scintillation Proximity (SPA) assay). Conditions: human recombinant PDE9 from SF-9 cells; 50 nM [3H]cGMP; room temperature, 30 min; Examples 3-114; read-out: G5678A (U): IC50.
T1 construct: made in house; host or cells: SF-9 insect cells
Type: biochemical
Procedure, shortened: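 Recombinant human PDE9 from SF-9 cell lysate supernatant, diluted so that ≤20% of [3H]cGMP substrate was hydrolysed to 5′GMP. Reaction started with enzyme and run 30 min at room temperature with 2% DMSO final. SPA beads were counted after >300 min; background came from a high concentration of a PDE inhibitor.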

T1 sequence (O76083 whole entry): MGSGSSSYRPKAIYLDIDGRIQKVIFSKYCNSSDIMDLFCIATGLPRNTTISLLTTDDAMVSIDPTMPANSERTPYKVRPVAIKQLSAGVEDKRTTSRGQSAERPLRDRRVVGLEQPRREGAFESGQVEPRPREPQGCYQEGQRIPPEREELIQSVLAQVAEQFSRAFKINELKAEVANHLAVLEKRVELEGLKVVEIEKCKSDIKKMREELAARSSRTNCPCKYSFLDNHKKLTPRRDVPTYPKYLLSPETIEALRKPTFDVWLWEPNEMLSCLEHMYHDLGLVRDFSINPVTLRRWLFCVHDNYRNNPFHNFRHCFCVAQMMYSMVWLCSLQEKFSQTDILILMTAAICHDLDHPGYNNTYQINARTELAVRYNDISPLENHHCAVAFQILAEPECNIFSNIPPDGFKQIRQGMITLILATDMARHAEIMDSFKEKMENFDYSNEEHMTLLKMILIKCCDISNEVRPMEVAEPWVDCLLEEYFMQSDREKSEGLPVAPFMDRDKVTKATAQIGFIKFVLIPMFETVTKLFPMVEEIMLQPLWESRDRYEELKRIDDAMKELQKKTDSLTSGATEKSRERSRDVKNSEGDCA

IC50 [nM] | Compound
7.37 | CC[C@@H]1CN(Cc2cnc(C)nc2)C[C@H]1c1nc2c(cnn2C(C)C)c(=O)[nH]1 (relative stereo) [Example 59, 6-{(3,4-trans)-4-ethyl-1-[(2-methylpyrimidin-5-yl)methyl]pyrrolidin-3-yl}-1-isopropyl-1,5-dihydro-4H-pyrazolo[3,4-d]pyrimidin-4-one]
873 | C[C@@H]1CN(Cc2ccccc2)C[C@H]1c1nc2c(cnn2CC(F)(F)F)c(=O)[nH]1 (relative stereo) [Example 64]

Same assay, conditions: human recombinant PDE9 from SF-9 cells; 50 nM [3H]cGMP; room temperature, 30 min; additional compounds Ex. 115-228; read-out: G5678A (U):IC50

IC50 [nM] | Compound
286 | C[C@@H]1CN(CC2CCCC2)C[C@H]1c1nc2c(cnn2C2CCCC2)c(=O)[nH]1 (racemic) [Example 205, 1-cyclopentyl-6-[(3,4-trans)-1-(cyclopentylmethyl)-4-methylpyrrolidin-3-yl]-1,5-dihydro-4H-pyrazolo[3,4-d]pyrimidin-4-one]
68.4 | COc1ccc(CN2C[C@@H](C)[C@H](c3nc4c(cnn4C4CCCC4)c(=O)[nH]3)C2)c(OC)c1 (racemic) [Example 206, 1-cyclopentyl-6-[(3,4-trans)-1-(2,4-dimethoxybenzyl)-4-methylpyrrolidin-3-yl]-1,5-dihydro-4H-pyrazolo[3,4-d]pyrimidin-4-one]
46.2 | C[C@@H]1CN(Cc2ccc(CN3CCOCC3)cc2)C[C@H]1c1nc2c(cnn2C2CCCC2)c(=O)[nH]1 (racemic) [Example 207, 1-cyclopentyl-6-{(3,4-trans)-4-methyl-1-[4-(morpholin-4-ylmethyl)benzyl]pyrrolidin-3-yl}-1,5-dihydro-4H-pyrazolo[3,4-d]pyrimidin-4-one]
7.13 | C[C@@H]1CN(Cc2ccc3nsnc3c2)C[C@H]1c1nc2c(cnn2C2CCCC2)c(=O)[nH]1 (racemic) [Example 208, 6-[(3,4-trans)-1-(2,1,3-benzothiadiazol-5-ylmethyl)-4-methylpyrrolidin-3-yl]-1-cyclopentyl-1,5-dihydro-4H-pyrazolo[3,4-d]pyrimidin-4-one]
52.9 | C[C@@H]1CN(CCOCc2ccccc2)C[C@H]1c1nc2c(cnn2C2CCCC2)c(=O)[nH]1 (racemic) [Example 209, 6-{(3,4-trans)-1-[2-(benzyloxy)ethyl]-4-methylpyrrolidin-3-yl}-1-cyclopentyl-1,5-dihydro-4H-pyrazolo[3,4-d]pyrimidin-4-one]
16.2 | C[C@@H]1CN(Cc2c(F)cccc2F)C[C@H]1c1nc2c(cnn2C2CCCC2)c(=O)[nH]1 (racemic) [Example 210, 1-cyclopentyl-6-[(3,4-trans)-1-(2,6-diflurobenzyl)-4-methylpyrrolidin-3-yl]-1,5-dihydro-4H-pyrazolo[3,4-d]pyrimidin-4-one]
39.8 | COc1ccccc1CN1C[C@@H](C)[C@H](c2nc3c(cnn3C3CCCC3)c(=O)[nH]2)C1 (racemic) [Example 211, 1-cyclopentyl-6-[(3,4-trans)-1-(2-methoxybenzyl)-4-methylpyrrolidin-3-yl]-1,5-dihydro-4H-pyrazolo[3,4-d]pyrimidin-4-one]
9.98 | Cc1nc(C)c(CN2C[C@@H](C)[C@H](c3nc4c(cnn4C4CCCC4)c(=O)[nH]3)C2)nc1C (racemic) [Example 212, 1-cyclopentyl-6-{(3,4-trans)-4-methyl-1-[(3,5,6-trimethylpyrazin-2-yl)methyl]pyrrolidin-3-yl}-1,5-dihydro-4H-pyrazolo[3,4-d]pyrimidin-4-one]
124 | C[C@@H]1CN(Cc2ccc(Cl)cc2Cl)C[C@H]1c1nc2c(cnn2C2CCCC2)c(=O)[nH]1 (racemic) [Example 213, 1-cyclopentyl-6-[(3,4-trans)-1-(2,4-dichlorobenzyl)-4-methylpyrrolidin-3-yl]-1,5-dihydro-4H-pyrazolo[3,4-d]pyrimidin-4-one]
15.7 | C[C@@H]1CN(Cc2cnn3c2CCCCC3)C[C@H]1c1nc2c(cnn2C2CCCC2)c(=O)[nH]1 (racemic) [Example 214, 1-cyclopentyl-6-[(3,4-trans)-4-methyl-1-(5,6,7,8-tetrahydro-4H-pyrazolo[1,5-a]azepin-3-ylmethyl)pyrrolidin-3-yl]-1,5-dihydro-4H-pyrazolo[3,4-d]pyrimidin-4-one]
11.5 | C[C@@H]1CN(Cc2cccc(F)c2)C[C@H]1c1nc2c(cnn2C2CCCC2)c(=O)[nH]1 (racemic) [Example 215, 1-cyclopentyl-6-[(3,4-trans)-1-(3-fluorobenzyl)-4-methylpyrrolidin-3-yl]-1,5-dihydro-4H-pyrazolo[3,4-d]pyrimidin-4-one]
17.4 | C[C@@H]1CN(Cc2ccc3c(c2)CCO3)C[C@H]1c1nc2c(cnn2C2CCCC2)c(=O)[nH]1 (racemic) [Example 216, 1-cyclopentyl-6-[(3,4-trans)-1-(2,3-dihydro-1-benzofuran-5-ylmethyl)-4-methylpyrrolidin-3-yl]-1,5-dihydro-4H-pyrazolo[3,4-d]pyrimidin-4-one]
25 | COc1ccc(C)cc1CN1C[C@@H](C)[C@H](c2nc3c(cnn3C3CCCC3)c(=O)[nH]2)C1 (racemic) [Example 217, 1-cyclopentyl-6-[(3,4-trans)-1-(2-methoxy-5-methylbenzyl)-4-methylpyrrolidin-3-yl]-1,5-dihydro-4H-pyrazolo[3,4-d]pyrimidin-4-one]
15.6 | C[C@@H]1CN(Cc2ccccc2F)C[C@H]1c1nc2c(cnn2C2CCCC2)c(=O)[nH]1 (racemic) [Example 218, 1-cyclopentyl-6-[(3,4-trans)-1-(2-fluorobenzyl)-4-methylpyrrolidin-3-yl]-1,5-dihydro-4H-pyrazolo[3,4-d]pyrimidin-4-one]
48.4 | C[C@@H]1CN(Cc2ccccc2Cl)C[C@H]1c1nc2c(cnn2C2CCCC2)c(=O)[nH]1 (racemic) [Example 219, 6-[(3,4-trans)-1-(2-chlorobenzyl)-4-methylpyrrolidin-3-yl]-1-cyclopentyl-1,5-dihydro-4H-pyrazolo[3,4-d]pyrimidin-4-one]
28 | C[C@@H]1CN(Cc2ccc(Cl)c(Cl)c2)C[C@H]1c1nc2c(cnn2C2CCCC2)c(=O)[nH]1 (racemic) [Example 220, 1-cyclopentyl-6-[(3,4-trans)-1-(3,4-dichlorobenzyl)-4-methylpyrrolidin-3-yl]-1,5-dihydro-4H-pyrazolo[3,4-d]pyrimidin-4-one]
12.7 | C[C@@H]1CN(Cc2cccc3nsnc23)C[C@H]1c1nc2c(cnn2C2CCCC2)c(=O)[nH]1 (racemic) [Example 221, 6-[(3,4-trans)-1-(2,1,3-benzothiadiazol-4-ylmethyl)-4-methylpyrrolidin-3-yl]-1-cyclopentyl-1,5-dihydro-4H-pyrazolo[3,4-d]pyrimidin-4-one]
6.03 | CCCc1ncc(CN2C[C@@H](C)[C@H](c3nc4c(cnn4C4CCCC4)c(=O)[nH]3)C2)cn1 (racemic) [Example 222, 1-cyclopentyl-6-{(3,4-trans)-4-methyl-1-[(2-propylpyrimidin-5-yl)methyl]pyrrolidin-3-yl}-1,5-dihydro-4H-pyrazolo[3,4-d]pyrimidin-4-one]
14.4 | CCn1nccc1CN1C[C@@H](C)[C@H](c2nc3c(cnn3C3CCCC3)c(=O)[nH]2)C1 (racemic) [Example 223, 1-cyclopentyl-6-{(3,4-trans)-1-[(1-ethyl-1H-pyrazol-5-yl)methyl]-4-methylpyrrolidin-3-yl}-1,5-dihydro-4H-pyrazolo[3,4-d]pyrimidin-4-one]
116 | C[C@@H]1CN(Cc2ccccc2OC(F)(F)F)C[C@H]1c1nc2c(cnn2C2CCCC2)c(=O)[nH]1 (racemic) [Example 224, 1-cyclopentyl-6-{(3,4-trans)-4-methyl-1-[2-(trifluoromethoxy)benzyl]pyrrolidin-3-yl}-1,5-dihydro-4H-pyrazolo[3,4-d]pyrimidin-4-one]
34.9 | C[C@@H]1CN(Cc2ccc(C(F)(F)F)cc2)C[C@H]1c1nc2c(cnn2C2CCCC2)c(=O)[nH]1 (racemic) [Example 225]
3.78 | C[C@@H]1CN(Cc2nc3cnccc3n2C)C[C@H]1c1nc2c(cnn2C2CCCC2)c(=O)[nH]1 (racemic) [Example 226, 1-cyclopentyl-6-{(3,4-trans)-4-methyl-1-[(1-methyl-1H-imidazo[4,5-c]pyridin-2-yl)methyl]pyrrolidin-3-yl}-1,5-dihydro-4H-pyrazolo[3,4-d]pyrimidin-4-one]
7.42 | C[C@@H]1CN(Cc2cc(F)cc(F)c2)C[C@H]1c1nc2c(cnn2C2CCCC2)c(=O)[nH]1 (racemic) [Example 227, 1-cyclopentyl-6-[(3,4-trans)-1-(3,5-difluorobenzyl)-4-methylpyrrolidin-3-yl]-1,5-dihydro-4H-pyrazolo[3,4-d]pyrimidin-4-one]
49.1 | C[C@@H]1CN(Cc2cnn3c2CCC3)C[C@H]1c1nc2c(cnn2C2CCCC2)c(=O)[nH]1 (racemic) [Example 228, 1-cyclopentyl-6-[(3,4-trans)-1-(5,6-dihydro-4H-pyrrolo[1,2-b]pyrazol-3-ylmethyl)-4-methylpyrrolidin-3-yl]-1,5-dihydro-4H-pyrazolo[3,4-d]pyrimidin-4-one]
83.8 | Cc1ccccc1CN1C[C@@H](C)[C@H](c2nc3c(cnn3C3CCCC3)c(=O)[nH]2)C1 (relative stereo) [Example 180, 1-cyclopentyl-6-[(3,4-trans)-4-methyl-1-(2-methylbenzyl)pyrrolidin-3-yl]-1,5-dihydro-4H-pyrazolo[3,4-d]pyrimidin-4-one]

Compound | IC50 [nM]
Cc1ccc(CN2C[C@@H](C)[C@H](c3nc4c(cnn4C4CCCC4)c(=O)[nH]3)C2)cc1F (relative stereo) [Example 143, 1-cyclopentyl-6-[(3,4-trans)-1-(3-fluoro-4-methylbenzyl)-4-methylpyrrolidin-3-yl]-1,5-dihydro-4H-pyrazolo[3,4-d]pyrimidin-4-one] | 35.1
